Reference: patent US12312350B2, “Compounds for inhibiting NLRP3 and uses thereof” (Ventus Therapeutics U.S., Inc., priority 2021, dated 2025)

Target: NLRP3 (Homo sapiens, UniProt Q96P20)
Assay: Human whole blood (hWB) NLRP3 Assay
Experimental: Heparin lithium coated tubes were used to collect blood from volunteers. Blood samples were distributed on 96 well plates using 90 μl per well. […] Human whole blood was drawn from healthy volunteers after obtaining written informed consent.

Sequence of NLRP3 (Q96P20 whole entry): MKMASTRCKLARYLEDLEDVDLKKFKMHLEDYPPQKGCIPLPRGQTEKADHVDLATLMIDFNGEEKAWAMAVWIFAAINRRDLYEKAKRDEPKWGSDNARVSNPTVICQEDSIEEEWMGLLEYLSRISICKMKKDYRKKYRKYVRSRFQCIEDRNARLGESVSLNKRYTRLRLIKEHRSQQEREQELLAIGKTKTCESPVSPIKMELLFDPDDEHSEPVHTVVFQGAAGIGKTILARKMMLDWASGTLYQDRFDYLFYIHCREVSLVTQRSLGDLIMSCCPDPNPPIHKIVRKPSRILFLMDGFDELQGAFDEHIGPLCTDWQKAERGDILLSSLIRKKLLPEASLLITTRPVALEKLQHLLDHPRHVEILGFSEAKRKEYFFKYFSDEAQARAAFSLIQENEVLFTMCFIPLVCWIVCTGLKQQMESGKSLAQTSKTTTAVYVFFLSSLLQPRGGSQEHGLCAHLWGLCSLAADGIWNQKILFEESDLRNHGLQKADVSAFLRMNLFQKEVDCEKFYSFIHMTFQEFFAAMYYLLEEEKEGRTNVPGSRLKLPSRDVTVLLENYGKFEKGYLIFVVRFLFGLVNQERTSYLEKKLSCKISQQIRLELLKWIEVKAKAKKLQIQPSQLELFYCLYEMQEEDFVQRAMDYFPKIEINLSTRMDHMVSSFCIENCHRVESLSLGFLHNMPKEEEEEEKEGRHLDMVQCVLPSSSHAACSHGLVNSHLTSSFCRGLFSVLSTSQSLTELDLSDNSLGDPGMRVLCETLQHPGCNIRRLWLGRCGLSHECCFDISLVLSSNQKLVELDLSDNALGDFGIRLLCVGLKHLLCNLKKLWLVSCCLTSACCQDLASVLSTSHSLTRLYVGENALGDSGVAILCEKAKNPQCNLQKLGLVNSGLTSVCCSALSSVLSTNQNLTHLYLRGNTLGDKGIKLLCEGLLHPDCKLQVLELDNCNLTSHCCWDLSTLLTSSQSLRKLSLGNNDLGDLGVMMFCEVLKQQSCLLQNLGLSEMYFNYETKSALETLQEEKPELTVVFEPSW

## Clc1ccc(-c2nnc(NCC3CCCO3)c3ccncc23)cc1 (stereo not shown)
  IC50: 42 µM
